Where a name gives a salt, the structure may show the parent alone.
Tests used:
[1] = molecular target: T1, proMMP9(20-445;ΔFnII) (SEQ ID NO:6) (Homo sapiens, UniProt P14780, DEL216-390); experiment: ThermoFluor binding assay with proMMP9(20-445;ΔFnII)
T1 construct: start methionine (N); made in house; host or cells: E. coli BL21(DE3) RIL
T1 sequence (P14780 with tags, fused parts or gaps DEL216-390): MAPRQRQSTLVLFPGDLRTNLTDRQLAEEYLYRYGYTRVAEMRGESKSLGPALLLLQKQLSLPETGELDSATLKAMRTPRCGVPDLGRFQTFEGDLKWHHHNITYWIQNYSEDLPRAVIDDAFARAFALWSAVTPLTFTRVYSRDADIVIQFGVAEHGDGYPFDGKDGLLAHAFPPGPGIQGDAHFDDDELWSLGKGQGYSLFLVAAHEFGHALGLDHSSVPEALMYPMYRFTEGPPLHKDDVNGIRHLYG
Outline: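 Thermal-shift binding using 2.8 μM proMMP9(20-445;ΔFnII) with 50 μM 1,8-ANS in 50 mM HEPES pH 7.0, 100 mM NaCl, 0.001% Tween-20, 2.5 mM MgCl2, 300 μM CaCl2. Compound serially diluted; heated 40–90 °C at 1 °C/min, fluorescence 500 nm. Tm shifts fitted using DSC/ThermoFluor-derived thermodynamic parameters.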

[2] = molecular target: T2, full-length proMMP9(1-707) (SEQ ID NO:1), activation by catalytic MMP3 (Homo sapiens, UniProt P14780, R574P); experiment: proMMP9/MMP3 P126 Activation Assay; assay type: biochemical
T2 construct: made in house; host or cells: HEK293 (proMMP9, secreted); E. coli (MMP3)
Description: proMMP9/MMP3 P126 Activation Assay
The reaction volume was 50 μL. […] Reactivity of residual MMP3 towards P-126 substrate was minimal under these conditions.

[3] = molecular target: T3, proMMP9(67-444;ΔFnII) (SEQ ID NO:5) (Homo sapiens, UniProt P14780, DEL216-390); experiment: ThermoFluor binding assay with proMMP9(67-444;ΔFnII)
T3 construct: start methionine (N); made in house; host or cells: E. coli BL21(DE3) RIL
T3 sequence (P14780 with tags, fused parts or gaps DEL216-390): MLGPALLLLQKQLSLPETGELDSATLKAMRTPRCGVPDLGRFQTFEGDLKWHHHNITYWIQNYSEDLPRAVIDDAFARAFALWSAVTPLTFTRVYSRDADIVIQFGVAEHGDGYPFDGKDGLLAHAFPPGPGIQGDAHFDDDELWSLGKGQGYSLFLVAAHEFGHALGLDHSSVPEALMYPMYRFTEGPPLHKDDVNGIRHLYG
Description: The ThermoFluor® (TF) assay is a 384-well plate-based binding assay that measures thermal stability of proteins (Biomol Screen 2001, 6, 429-40; Biochemistry 2005, 44, 5258-66). The experiments were carried out using instruments available from Johnson & Johnson Pharmaceutical Research & Development, LLC. TF dye used in all experiments was […] (1,8-ANS) (Invitrogen: A-47).
Compounds were arranged in a pre-dispensed plate (Greiner Bio-one: 781280), wherein compounds were serially diluted in 100% DMSO across 11 columns within a series. Columns 12 and 24 were used as DMSO reference and contained no compound. For multiple compound concentration-response experiments, the compound aliquots ([…]) were robotically predispensed directly into black 384-well polypropylene PCR microplates (Abgene: TF-0384/k) using a Cartesian Hummingbird liquid handler (DigiLab, Holliston, Mass.). Following compound dispense, protein and dye solutions were added to achieve the final assay volume of 3 μL. The assay solutions were overlayed with 1 μL of silicone oil (Fluka, type DC 200: 85411) to prevent evaporation.
Assay plates were robotically loaded onto a thermostatically controlled PCR-type thermal block and then heated from 40 to 90° C. at a ramp-rate of 1° C./min for all experiments. Fluorescence was measured by continuous illumination with UV light (Hamamatsu LC6) supplied via fiber optics and filtered through a band-pass filter (380-400 nm; >60D cutoff). Fluorescence emission of the entire 384-well plate was detected by measuring light intensity using a CCD camera (Sensys, Roper Scientific) filtered to detect 500±25 nm, resulting in simultaneous and independent readings of all 384 wells. A single image with 20-sec exposure time was collected at each temperature, and the sum of the pixel intensity in a given area of the assay plate was recorded vs temperature and fit to standard equations to yield the Tm (J Biomol Screen 2001, 6, 429-40).
Thermodynamic parameters necessary for fitting compound binding for each proMMP were estimated by differential scanning calorimetry (DSC) and from ThermoFluor® data. The heat capacity of unfolding for each protein was estimated from the molecular weight and from ThermoFluor® dosing data.
ThermoFluor® with proMMP9(67-444;ΔFnII) (SEQ ID NO:5)
The protein sample preparations had to include a desalting buffer exchange step via a PD-10 gravity column (GE Healthcare). The desalting buffer exchange was performed prior to diluting the protein to the final assay concentration of 3.5 μM proMMP9(67-444;ΔFnII) (SEQ ID NO:5). The concentration of proMMP9(67-444;ΔFnII) (SEQ ID NO:5) was determined spectrophotometrically based on a calculated extinction coefficient of ε280=33900 M^−1cm^−1, a calculated molecular weight of 22.6 kDa, and calculated pI of 5.20. ThermoFluor® reference conditions were defined as follows: 80 μg/mL (3.5 μM) proMMP9(67-444;ΔFnII) (SEQ ID NO:5), 50 μM 1,8-ANS, pH 7.0 Buffer (50 mM HEPES pH 7.0, 100 mM NaCl, 0.001% Tween-20, 2.5 mM MgCl2, 300 μM CaCl2). The thermodynamic parameters for proMMP9(67-444;ΔFnII) (SEQ ID NO:5) are as follows: Tm (° C.)=63 (+/−0.1), ΔUH(Tm) (cal mol^−1)=105000(+/−5000), ΔUS(Tm) (cal mol^−1 K^−1)=[…], ΔUCp (cal mol^−1 K^−1)=2000.

T2 sequence (P14780 20-707 R574P): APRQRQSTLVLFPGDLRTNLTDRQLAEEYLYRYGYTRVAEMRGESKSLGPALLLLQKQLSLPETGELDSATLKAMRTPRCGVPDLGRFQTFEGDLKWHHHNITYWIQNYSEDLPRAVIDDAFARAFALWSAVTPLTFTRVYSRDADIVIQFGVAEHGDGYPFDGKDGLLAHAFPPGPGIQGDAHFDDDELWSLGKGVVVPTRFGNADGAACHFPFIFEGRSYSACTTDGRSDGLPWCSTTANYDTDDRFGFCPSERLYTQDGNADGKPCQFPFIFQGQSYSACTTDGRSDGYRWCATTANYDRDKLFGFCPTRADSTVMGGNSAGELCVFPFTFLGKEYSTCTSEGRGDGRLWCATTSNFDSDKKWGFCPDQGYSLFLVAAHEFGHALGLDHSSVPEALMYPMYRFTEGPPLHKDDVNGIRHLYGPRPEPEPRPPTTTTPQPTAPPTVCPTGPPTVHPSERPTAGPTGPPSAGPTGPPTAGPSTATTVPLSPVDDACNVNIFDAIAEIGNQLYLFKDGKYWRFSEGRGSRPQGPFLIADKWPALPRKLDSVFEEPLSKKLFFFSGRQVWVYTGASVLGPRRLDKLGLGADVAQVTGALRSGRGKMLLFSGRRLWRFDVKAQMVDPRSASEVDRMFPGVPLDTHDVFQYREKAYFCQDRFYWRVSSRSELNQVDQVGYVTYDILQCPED

Structure (SMILES): CCN1CCN(C(=O)c2ccc(-c3csc(Nc4cc(S(N)(=O)=O)ccc4OC(C)C)n3)cn2)CC1 [Example 47, 4-Isopropoxy-3-{4-[6-(4-ethyl-piperazine-1-carbonyl)-pyridin-3-yl]-thiazol-2-ylamino}-benzenesulfonamide.TFA]
- Kd [1]: 0.9 µM
- IC50 [2]: 0.98 µM
- Kd [3]: 1.5 µM

Structure (SMILES): CC(C)Oc1ccc(S(N)(=O)=O)cc1Nc1nc(-c2ccc(C(=O)N3CCC(N(C)C)CC3)nc2)cs1 [Example 48, 3-{4-[6-(4-Dimethylamino-piperidine-1-carbonyl)-pyridin-3-yl]-thiazol-2-ylamino}-4-isopropoxy-benzenesulfonamide.TFA]
- Kd [1]: 2.3 µM
- IC50 [2]: 1.1 µM
- Kd [3]: 4.1 µM

Structure (SMILES): CC(C)Oc1ccc(S(N)(=O)=O)cc1Nc1nc(-c2ccc(C(=O)N3CCCN(C)CC3)nc2)cs1 [Example 49, 3-{4-[6-(4-Methyl-[1,4]diazepane-1-carbonyl)-pyridin-3-yl]-thiazol-2-ylamino}-4-isopropoxy-benzenesulfonamide.TFA]
- Kd [1]: 0.83 µM
- IC50 [2]: 1 µM
- Kd [3]: 2 µM

Structure (SMILES): CC(C)Oc1ccc(S(N)(=O)=O)cc1Nc1nc(-c2ccc(C(=O)NCCN(C)C)nc2)cs1 [Example 50, 5-[2-(2-Isopropoxy-5-sulfamoyl-phenylamino)-thiazol-4-yl]-pyridine-2-carboxylic acid (2-dimethylamino-ethyl)-amide.TFA]
- Kd [1]: 0.09 µM
- IC50 [2]: 0.16 µM
- Kd [3]: 0.13 µM

Structure (SMILES): CC(C)Oc1ccc(S(N)(=O)=O)cc1Nc1nc(-c2ccc(C(=O)N3CCN(C(C)C)CC3)nc2)cs1 [Example 51, 4-Isopropoxy-3-{4-[6-(4-isopropyl-piperazine-1-carbonyl)-pyridin-3-yl]-thiazol-2-ylamino}-benzenesulfonamide.TFA]
- Kd [1]: 1.2 µM
- IC50 [2]: 1.8 µM
- Kd [3]: 2.7 µM

Structure (SMILES): CCN1CCCN(C(=O)c2ccc(-c3csc(Nc4cc(S(N)(=O)=O)ccc4OC(C)C)n3)cn2)CC1 [Example 52, 3-{4-[6-(4-Ethyl-[1,4]diazepane-1-carbonyl)-pyridin-3-yl]-thiazol-2-ylamino}-4-isopropoxy-benzenesulfonamide.TFA]
- Kd [1]: 1.2 µM
- IC50 [2]: 1 µM
- Kd [3]: 2.2 µM

Structure (SMILES): CC(C)Oc1ccc(S(N)(=O)=O)cc1Nc1nc(-c2ccc(C(=O)N(C)CCN(C)C)nc2)cs1 [Example 53, 5-[2-(2-Isopropoxy-5-sulfamoyl-phenylamino)-thiazol-4-yl]-pyridine-2-carboxylic acid (2-dimethylamino-ethyl)-methyl-amide.TFA]
- Kd [1]: 0.89 µM
- IC50 [2]: 0.97 µM
- Kd [3]: 2.3 µM

Structure (SMILES): CC(C)Oc1ccc(S(N)(=O)=O)cc1Nc1nc(-c2ccc(C(=O)N3CCN(C(=O)OC(C)(C)C)CC3)nc2)cs1 [Example 54, 4-{5-[2-(2-Isopropoxy-5-sulfamoyl-phenylamino)-thiazol-4-yl]-pyridine-2-carbonyl}-piperazine-1-carboxylic acid tert-butyl ester.TFA]
- Kd [1]: 0.96 µM
- IC50 [2]: 3.7 µM
- Kd [3]: 2.5 µM

Structure (SMILES): CC(C)Oc1ccc(S(N)(=O)=O)cc1Nc1nc(-c2ccc(C(=O)NC3CCN(C)CC3)nc2)cs1 [Example 55, 5-[2-(2-Isopropoxy-5-sulfamoyl-phenylamino)-thiazol-4-yl]-pyridine-2-carboxylic acid (1-methyl-piperidin-4-yl)-amide.TFA]
- Kd [1]: 0.81 µM
- IC50 [2]: 0.42 µM
- Kd [3]: 2.6 µM

Structure (SMILES): CC(C)Oc1ccc(S(N)(=O)=O)cc1Nc1nc(-c2ccc(CO)nc2)cs1 [Example 56, 3-[4-(6-Hydroxymethyl-pyridin-3-yl)-thiazol-2-ylamino]-4-isopropoxy-benzenesulfonamide]
- Kd [1]: 0.64 µM
- IC50 [2]: 0.39 µM
- Kd [3]: 1.5 µM

Structure (SMILES): CC(C)Oc1ccc(S(N)(=O)=O)cc1Nc1nc(-c2ccc(C(=O)N3CCNCC3)nc2)cs1 [Example 58, 4-Isopropoxy-3-{4-[6-(piperazine-1-carbonyl)-pyridin-3-yl]-thiazol-2-ylamino}-benzenesulfonamide.TFA]
- Kd [1]: 1.2 µM
- IC50 [2]: 1.4 µM
- Kd [3]: 3.1 µM

Structure (SMILES): CC(C)Oc1ccc(S(N)(=O)=O)cc1Nc1nc(-c2ccc(NCC3CC3)nc2)cs1 [Example 62, 3-((4-(6-((Cyclopropylmethyl)amino)pyridin-3-yl)thiazol-2-yl)amino)-4-isopropoxybenzenesulfonamide.TFA]
- Kd [1]: 0.51 µM
- IC50 [2]: 0.61 µM
- Kd [3]: 2.2 µM

Structure (SMILES): CC(C)Oc1ccc(S(N)(=O)=O)cc1Nc1nc(-c2ccc(NCCCn3ccnc3)nc2)cs1 [Example 63, 3-((4-(6-((3-(1H-Imidazol-1-yl)propyl)amino)pyridin-3-yl)thiazol-2-yl)amino)-4-isopropoxybenzenesulfonamide.TFA]
- Kd [1]: 0.21 µM
- IC50 [2]: 0.15 µM
- Kd [3]: 0.28 µM

Structure (SMILES): CC(C)Oc1ccc(S(N)(=O)=O)cc1Nc1nc(-c2ccc(N3CCNC(=O)C3)nc2)cs1 [Example 64, 4-Isopropoxy-3-((4-(6-(3-oxopiperazin-1-yl)pyridin-3-yl)thiazol-2-yl)amino)benzenesulfonamide.TFA]
- Kd [1]: 0.26 µM
- IC50 [2]: 0.12 µM
- Kd [3]: 2.5 µM

Structure (SMILES): CC(C)Oc1ccc(S(N)(=O)=O)cc1Nc1nc(-c2ccc(C(=O)NC3CC(C)(C)N(C)C(C)(C)C3)nc2)cs1 [Example 84, 5-(2-((2-Isopropoxy-5-sulfamoylphenyl)amino)thiazol-4-yl)-N-(1,2,2,6,6-pentamethylpiperidin-4-yl)picolinamide.TFA]
- Kd [1]: 0.25 µM
- IC50 [2]: 0.26 µM
- Kd [3]: 0.2 µM

Structure (SMILES): CC(C)CCNC(=O)c1ccc(-c2csc(Nc3cc(S(N)(=O)=O)ccc3OC(C)C)n2)cn1 [Example 85, N-Isopentyl-5-(2-((2-isopropoxy-5-sulfamoylphenyl)amino)thiazol-4-yl)picolinamide.TFA]
- Kd [1]: 4.6 µM
- IC50 [2]: ~20 µM
- Kd [3]: 32 µM

Structure (SMILES): COC/C=C/c1ccc(-c2csc(Nc3cc(S(N)(=O)=O)ccc3OC(C)C)n2)cn1 [Example 93, (E)-4-Isopropoxy-3-((4-(6-(3-methoxyprop-1-en-1-yl)pyridin-3-yl)thiazol-2-yl)amino)benzenesulfonamide.TFA]
- Kd [1]: 0.58 µM
- IC50 [2]: 0.52 µM
- Kd [3]: 3.4 µM

Structure (SMILES): COCCCc1ccc(-c2csc(Nc3cc(S(N)(=O)=O)ccc3OC(C)C)n2)cn1 [Example 94, 4-Isopropoxy-3-((4-(6-(3-methoxypropyl)pyridin-3-yl)thiazol-2-yl)amino)benzenesulfonamide.TFA]
- Kd [1]: 0.43 µM
- IC50 [2]: 0.52 µM
- Kd [3]: 1.3 µM

— US20120129843A1, “PYRIDYL-THIAZOLYL INHIBITORS OF PRO-MATRIX METALLOPROTEINASE ACTIVATION” (priority 2010, published 2012)
